In patent US6972297B2, “2-Hydroxy-mutilin carbamate derivatives for antibacterial use” (SmithKline Beecham p.l.c., priority 2000, dated 2005):

How the values were obtained:
[1] = test system: Moraxella catarrhalis Ravasio; assay: conventional MIC assay, Moraxella catarrhalis Ravasio; type: cell-based
Protocol: (§1) Compounds of the present invention were assessed for anti-bacterial activity in a conventional MIC assay against a range of pathogenic organisms.

[2] = test system: Streptococcus pneumoniae 1629; assay: conventional MIC assay, Streptococcus pneumoniae 1629; type: cell-based
Protocol: as §1

[3] = test system: Staphylococcus aureus Oxford; assay: conventional MIC assay, Staphylococcus aureus Oxford; type: cell-based
Protocol: as §1

[4] = test system: Haemophilius influenzae Q1; assay: conventional MIC assay, Haemophilius influenzae Q1; type: cell-based
Protocol: as §1

[5] = intrinsic clearance in human liver microsome preparations; type: in vitro ADME; conditions: in the presence of human liver microsomes; R1=2-amino-4-pyridyl, R2=vinyl

C=C[C@]1(C)C[C@@H](OC(=O)NC(=O)c2ccc(N)nc2)[C@]2(C)C(C)CC[C@]3(C[C@H](O)C(=O)C32)[C@@H](C)[C@@H]1O (stereo partly shown) [Example 1]
≤ 4 µg/mL: MIC [1] | MIC [2] | MIC [3] | MIC [4]

C=C[C@]1(C)C[C@@H](OC(=O)NC(=O)c2ccnc(N)c2)[C@]2(C)C(C)CC[C@]3(C[C@H](O)C(=O)C32)[C@@H](C)[C@@H]1O (stereo partly shown) [Example 2]
6.5 ml/min/g liver: intrinsic clearance (CLi, a measure of rate of metabolism) [5]

C=C[C@]1(C)C[C@@H](OC(=O)NC(=O)c2cnc(N)c([N+](=O)[O-])c2)[C@]2(C)C(C)CC[C@]3(C[C@H](O)C(=O)C32)[C@@H](C)[C@@H]1O (stereo partly drawn) [Example 22, (6-Amino-5-nitronicotinoyl)carbamic Acid 2-(S)-hydroxymutilin 14-ester]
≤ 4 µg/mL: MIC [1] | MIC [2] | MIC [3] | MIC [4]

C=C[C@]1(C)C[C@@H](OC(=O)NC(=O)c2cc(OC)nc(N)n2)[C@]2(C)C(C)CC[C@]3(C[C@H](O)C(=O)C32)[C@@H](C)[C@@H]1O (stereo partly drawn) [Example 23, (2-Amino-6-methoxypyrimidin-4-ylcarbonyl)carbamic Acid 2-(S)-hydroxymutilin 14-ester]
≤ 4 µg/mL: MIC [1] | MIC [2] | MIC [3] | MIC [4]

C=C[C@]1(C)C[C@@H](OC(=O)NC(=O)c2ccc(N)nn2)[C@]2(C)C(C)CC[C@]3(C[C@H](O)C(=O)C32)[C@@H](C)[C@@H]1O.Cl (stereo partly drawn) [Example 27, (3-Amino-6-pyridazinylcarbonyl)carbamic Acid 2-(S)-hydroxymutilin 14-ester Hydrochloride]
≤ 4 µg/mL: MIC [1] | MIC [2] | MIC [3] | MIC [4]

C=C[C@]1(C)C[C@@H](OC(=O)NC(=O)c2csc(C3CCN(CC(N)=O)CC3)n2)[C@]2(C)C(C)CC[C@]3(C[C@H](O)C(=O)C32)[C@@H](C)[C@@H]1O (stereo partly drawn) [Example 30, [2-(1-Carboxamidomethylpiperidin-4-yl)thiazole-4-carbonyl]carbamic Acid 2-(S)-hydroxymutilin 14-ester]
≤ 4 µg/mL: MIC [1] | MIC [2] | MIC [3] | MIC [4]

CC[C@]1(C)C[C@@H](OC(=O)NC(=O)c2cccc(N)n2)[C@]2(C)C(C)CC[C@]3(C[C@H](O)C(=O)C32)[C@@H](C)[C@@H]1O (stereo partly drawn) [Example 32, (6-aminopyridin-2-ylcarbonyl)carbamic Acid 19,20-dihydro-2-(S)-hydroxymutilin 14-ester]
≤ 4 µg/mL: MIC [1] | MIC [2] | MIC [3] | MIC [4]

CC[C@]1(C)CC(OC(=O)NC(=O)c2cnc3[nH]c(=O)cnc3c2)[C@]2(C)C(C)CC[C@]3(C[C@H](O)C(=O)C23)[C@@H](C)[C@@H]1O (stereo partly drawn) [Example 34, (3-Oxo-3,4-dihydropyrido[2,3-b]pyrazin-7-ylcarbonyl)carbamic Acid 19,20-dihydro-2-(S)-hydroxymutilin 14-ester]
≤ 4 µg/mL: MIC [1] | MIC [2] | MIC [3] | MIC [4]

CC[C@]1(C)CC(OC(=O)NC(=O)c2cnc(N)s2)[C@]2(C)C(C)CC[C@]3(C[C@H](O)C(=O)C23)[C@@H](C)[C@@H]1O (stereo partly drawn) [Example 35, (2-Aminothiazol-5-ylcarbonyl)carbamic Acid 19,20-dihydro-2-(S)-hydroxymutilin 14-ester]
≤ 4 µg/mL: MIC [1] | MIC [2] | MIC [3] | MIC [4]

CC[C@]1(C)CC(OC(=O)NC(=O)c2cnc(OC)c(N)c2)[C@]2(C)C(C)CC[C@]3(C[C@H](O)C(=O)C23)[C@@H](C)[C@@H]1O (stereo partly drawn) [Example 36, (5-Amino-6-methoxynicotinoyl)carbamic Acid 19,20-dihydro-2-(S)-hydroxymutilin 14-ester]
≤ 4 µg/mL: MIC [1] | MIC [2] | MIC [3] | MIC [4]

CC[C@]1(C)CC(OC(=O)NC(=O)c2cnc(NC)nc2)[C@]2(C)C(C)CC[C@]3(C[C@H](O)C(=O)C23)[C@@H](C)[C@@H]1O (stereo partly drawn) [Example 37, (2-Methylaminopyrimidin-5-ylcarbonyl)carbamic Acid 19,20-dihydro-2-(S)-hydroxymutilin 14-ester]
≤ 4 µg/mL: MIC [1] | MIC [2] | MIC [3] | MIC [4]

CC[C@]1(C)CC(OC(=O)NC(=O)c2cnc(OC)nc2)[C@]2(C)C(C)CC[C@]3(C[C@H](O)C(=O)C23)[C@@H](C)[C@@H]1O (stereo partly drawn) [Example 38, (2-Methoxypyrimidin-5-ylcarbonyl)carbamic Acid 19,20-dihydro-2-(S)-hydroxymutilin 14-ester]
≤ 4 µg/mL: MIC [1] | MIC [2] | MIC [3] | MIC [4]

CC[C@]1(C)CC(OC(=O)NC(=O)c2ccc(N)nc2)[C@]2(C)C(C)CC[C@]3(C[C@H](O)C(=O)C23)[C@@H](C)[C@@H]1O (stereo partly drawn) [Example 39, (6-Aminonicotinoyl)carbamic Acid 19,20-dihydro-2-(S)-hydroxymutilin 14-ester]
≤ 4 µg/mL: MIC [1] | MIC [2] | MIC [3] | MIC [4]
